{
  "source": "paper PMC10220285",
  "about": "“Development of an assay pipeline for the discovery of novel small molecule inhibitors of human glutathione peroxidases GPX1 and GPX4” (Redox Biology, 2023)",
  "format_in_all_cases": "biochemical",
  "key": {"human GPX2": {"target": "T1, human GPX2 (Homo sapiens, UniProt P18283)", "T1 construct": "made in house", "T1 sequence (P18283 1-190)": "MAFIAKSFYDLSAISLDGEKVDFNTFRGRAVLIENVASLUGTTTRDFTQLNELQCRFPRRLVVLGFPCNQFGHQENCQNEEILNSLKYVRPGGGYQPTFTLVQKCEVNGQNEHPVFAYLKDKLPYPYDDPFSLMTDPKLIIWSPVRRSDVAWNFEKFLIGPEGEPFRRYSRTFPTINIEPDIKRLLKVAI", "assay": "GPX2 activity assay (follow-up isoform specificity)", "settings": "for inhibition of GPX2: Fig. 9 pan-selenoprotein inhibitors", "protocol": "(§1) The compound plates were prepared as described previously. Purified recombinant human GPX1, GPX2, GPX4, GR, and TXNRD1 were produced and purified as previously reported [[48], [49], [50]]. As production of GPX2 was not optimized at the onset of screening, only GPX1 and GPX4 underwent library screening, and GPX2 was used as a follow-up.\n(§2) Follow-up and orthogonal assays were run in quadruplicate unless otherwise stated. Assay schemes are illustrated in Fig. 1.\nPrevious work has shown similarities in the substrate specificities of GPX1 and GPX2, and a more unique substrate profile of GPX4 [8].\nThe GPX2 isoform of human selenoprotein GPXs is found in epithelial cells and has similar substrate specificity with GPX1, but not as much with GPX4 [8]. Additionally, GPX1 and GPX2 both form homotetramers and share similarities in structural homology, although GPX2 has a much slower turnover rate."}, "human TXNRD1": {"target": "T2, human TXNRD1 (Homo sapiens, UniProt Q16881)", "T2 construct": "made in house", "T2 sequence (Q16881 1-499 isoform Q16881-5)": "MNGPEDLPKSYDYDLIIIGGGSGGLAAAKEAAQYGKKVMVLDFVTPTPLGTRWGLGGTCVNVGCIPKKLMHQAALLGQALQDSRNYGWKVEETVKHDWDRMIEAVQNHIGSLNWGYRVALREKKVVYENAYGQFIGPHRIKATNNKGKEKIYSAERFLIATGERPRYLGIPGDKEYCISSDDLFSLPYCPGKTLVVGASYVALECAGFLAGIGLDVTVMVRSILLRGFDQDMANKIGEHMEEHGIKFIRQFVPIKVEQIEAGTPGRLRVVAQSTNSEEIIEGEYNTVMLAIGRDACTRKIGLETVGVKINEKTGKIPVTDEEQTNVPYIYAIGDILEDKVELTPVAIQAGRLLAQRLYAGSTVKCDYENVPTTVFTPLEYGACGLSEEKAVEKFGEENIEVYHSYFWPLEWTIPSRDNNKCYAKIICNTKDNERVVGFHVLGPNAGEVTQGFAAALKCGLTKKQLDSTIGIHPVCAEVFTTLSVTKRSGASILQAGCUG", "assay": "Thioredoxin reductase 1 (TXNRD1) inhibition assay (selenite reduction)", "settings": "for inhibition of TXNRD1: Fig. 9 pan-selenoprotein inhibitors", "protocol": "as §1, §2\nTXNRD1 activity was assessed using a modified 1536-well TXNRD1 inhibition assay, based upon TXNRD1-catalyzed selenite reduction as previously described (Fig. 1D). […] TE buffer was dispensed into column 1 and 2 as a no-enzyme control. Finally, 1 μL of sodium selenite in TE buffer was dispensed into each well for final concentrations of 90 nM hTXNRD1, 0.4 mM NADPH, and 0.4 mM sodium selenite. The plate was read in a Viewlux multimodal detector in kinetic mode and fluorescence at 340 nm/450 nm was measured every minute for 8 min.\nPercent activity was determined by first calculating delta RFU (decrease in fluorescence between t = 0 and t = 20/30 min in primary GPX, GR counter-screen, and TXNRD1 assays, or increase in fluorescence between t = 0 and t = 20 min in the Monobromobimane GPX endpoint assay), and normalizing enzyme activity using median delta RFU values for DMSO-treated enzyme control, and DMSO-treated no-enzyme controls.\nCompound inhibitory activity in the qHTS assays was determined by plotting dose-response data for each sample and fitting with a four-parameter logistic fit to assess IC50 values, efficacy (maximal response), and AUC (area under the curve), as previously described. Hits were classified by the quality of the concentration-response curves (CRC). Curve classes −1.1 and −1.2 being the highest-confidence actives with complete CRCs and classes −2.1 and −2.2 being lower-confidence actives with incomplete CRCs."}, "GPX1": {"target": "T3, GPX1 (Homo sapiens, UniProt P07203)", "T3 construct": "made in house; host or cells: E. coli", "T3 sequence (P07203 1-203)": "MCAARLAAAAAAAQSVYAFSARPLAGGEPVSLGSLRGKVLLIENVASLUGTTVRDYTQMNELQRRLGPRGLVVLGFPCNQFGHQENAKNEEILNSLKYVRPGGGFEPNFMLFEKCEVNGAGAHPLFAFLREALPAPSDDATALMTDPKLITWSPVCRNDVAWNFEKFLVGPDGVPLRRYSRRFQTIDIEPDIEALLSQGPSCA", "assay": "GR-coupled GPX1 activity assay (NADPH fluorescence, CHP substrate)", "settings": "for inhibition of GPX1: Fig. 9 pan-selenoprotein inhibitors"}, "[1]": {"settings": "listed as 2,3-dimercaptopropanesulfonic acid"}},
  "note": "Like-named read-outs stand apart in the source and are kept apart here.",
  "data": [
    {"smiles": "CC(=O)OC[C@H]1O[C@@H]([S-])[C@H](OC(C)=O)[C@@H](OC(C)=O)[C@@H]1OC(C)=O.CCP(CC)CC.[Au+]", "note": "[Auranofin]", "values": [
      {"measurement": "IC50", "setting": "human GPX2; IC50 of resulting CRC, Table 2", "result": 2.1, "unit": "µM"},
      {"measurement": "IC50", "setting": "human TXNRD1; IC50 of resulting CRC, Table 2, read-out: IC50 TrxR1", "result": 19, "unit": "µM"},
      {"measurement": "IC50", "setting": "GPX1; IC50 of resulting CRC, Table 2, read-out: IC50 GPx1", "result": 4.6, "unit": "µM"},
      {"measurement": "IC50", "setting": "GPX1; assay validation, Fig. 2E, read-out: IC50, prior art GPX1 inhibitor activities in optimized assay", "result": 4.84, "unit": "µM"},
      {"measurement": "IC50", "setting": "GPX1; compound present in the screening libraries (qHTS), read-out: IC50 GPX1, primary library screen", "result": 2.26, "unit": "µM"},
      {"measurement": "IC50", "setting": "GPX1; initial tests comparing GR-coupled and mBBr assay formats, read-out: IC50 in the GR-coupled assay", "result": 1.94, "unit": "µM"},
      {"measurement": "hit status in GPX1 qHTS", "setting": "GPX1; primary library screen", "result": "high-quality active hit for GPX1 in all three"}
    ]},
    {"smiles": "O=S(=O)(O)CC(S)CS", "note": "(stereo not shown) [2,3-dimercaptopropanesulfonate]", "values": [
      {"measurement": "inhibition of GPX2", "setting": "human GPX2", "result": "inhibited all tested selenoproteins"},
      {"measurement": "inhibition of GPX2", "setting": "human GPX2; [1]", "result": "inhibited all selenoproteins"},
      {"measurement": "inhibition of TXNRD1", "setting": "human TXNRD1", "result": "inhibited all tested selenoproteins"},
      {"measurement": "inhibition of TXNRD1", "setting": "human TXNRD1; [1]", "result": "inhibited all selenoproteins"},
      {"measurement": "inhibition of GPX1", "setting": "GPX1", "result": "inhibited all tested selenoproteins"},
      {"measurement": "inhibition of GPX1", "setting": "GPX1; [1]", "result": "inhibited all selenoproteins"}
    ]}
  ]
}
